Test results: ChEMBL document CHEMBL1201862, “PubChem BioAssay data set” (2004)
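Cultured in 96-well plates, cells were exposed to test compound for 48 hours across five concentrations. The concentration for 50% growth inhibition is given as GI50.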 Active and inactive are the calls of the source. No stated cut-off is given here; in the data, active = GI50 up to about 1.1 µM and inactive = higher.

Experiments:
Test in all cases: DTP human tumour cell line panel, 48 h
[1] = system: M14
[2] = system: HOP-92
[3] = system: SN12C
[4] = system: SF-268
[5] = system: LOX IMVI
[6] = system: ACHN
[7] = system: CCRF-CEM
[8] = system: CAKI-1
[9] = system: UACC-62
[10] = system: KM12
[11] = system: TK-10
[12] = system: SK-OV-3
[13] = system: SNB-75
[14] = system: HT-29
[15] = system: SNB-19
[16] = system: NCI-H460
[17] = system: HCT-15
[18] = system: OVCAR-8
[19] = system: MDA-MB-231
[20] = system: SR

| SMILES | GI50 [1] | GI50 [2] | GI50 [3] | GI50 [4] | GI50 [5] | GI50 [6] | GI50 [7] | GI50 [8] | GI50 [9] | GI50 [10] | GI50 [11] | GI50 [12] | GI50 [13] | GI50 [14] | GI50 [15] | GI50 [16] | GI50 [17] [µM] | GI50 [18] | GI50 [19] | GI50 [20] |
| --- | --- | --- | --- | --- | --- | --- | --- | --- | --- | --- | --- | --- | --- | --- | --- | --- | --- | --- | --- | --- |
| Cc1ccc2nc(-c3ccccc3)c(N=O)n2c1 | 68.2 µM (inactive) | 77.1 µM (inactive) | 20.2 µM (inactive) | 69.2 µM (inactive) | 46.5 µM (inactive) | 46.9 µM (inactive) | 38.5 µM (inactive) | 37.1 µM (inactive) | 22.6 µM (inactive) | 40.6 µM (inactive) | 38.3 µM (inactive) | > 100 µM (inactive) | 76.7 µM (inactive) | 48 µM (inactive) | 96.4 µM (inactive) | 50.1 µM (inactive) | 34 | 41 µM (inactive) | 17.4 µM (inactive) | – |
| NC1CSc2ccccc2NC1=O (stereo not drawn) | > 100 µM (inactive) | – | > 100 µM (inactive) | > 100 µM (inactive) | > 100 µM (inactive) | > 100 µM (inactive) | > 100 µM (inactive) | > 100 µM (inactive) | > 100 µM (inactive) | > 100 µM (inactive) | > 100 µM (inactive) | > 100 µM (inactive) | > 100 µM (inactive) | > 100 µM (inactive) | > 100 µM (inactive) | > 100 µM (inactive) | > 100 | > 100 µM (inactive) | > 100 µM (inactive) | > 100 µM (inactive) |
| CCN(CC)/C(Sc1ccccc1)=C(\C(Cl)=C(Cl)Cl)[N+](=O)[O-] | 17.3 µM (inactive) | 14.2 µM (inactive) | 17.9 µM (inactive) | 21.4 µM (inactive) | 11 µM (inactive) | 17.1 µM (inactive) | 4.99 µM (inactive) | 13 µM (inactive) | 14.6 µM (inactive) | 17.7 µM (inactive) | 16.9 µM (inactive) | 33.4 µM (inactive) | 20.4 µM (inactive) | 21.5 µM (inactive) | 20.6 µM (inactive) | 21.7 µM (inactive) | 14.9 | 17.2 µM (inactive) | 24.2 µM (inactive) | – |
| CCOC(=O)C1NCCc2c1[nH]c1ccccc21 (stereo not drawn) | > 10 µM (inactive) | > 10 µM (inactive) | > 10 µM (inactive) | > 10 µM (inactive) | – | – | > 10 µM (inactive) | > 10 µM (inactive) | > 10 µM (inactive) | > 10 µM (inactive) | > 10 µM (inactive) | > 10 µM (inactive) | > 10 µM (inactive) | > 10 µM (inactive) | – | – | > 10 | > 10 µM (inactive) | > 10 µM (inactive) | > 10 µM (inactive) |
| CO/N=C(/C)c1cccc(Nc2nc3ccccc3c3[nH]c4ccccc4c23)c1 | 7.69 µM (inactive) | – | 11.5 µM (inactive) | 12.3 µM (inactive) | 10.6 µM (inactive) | 3.57 µM (inactive) | – | 10.5 µM (inactive) | 6.03 µM (inactive) | 3.99 µM (inactive) | – | 17.1 µM (inactive) | 0.302 µM (active) | 2.49 µM (inactive) | 12.9 µM (inactive) | 2.52 µM (inactive) | 5.92 | 6.22 µM (inactive) | 12.1 µM (inactive) | 5.86 µM (inactive) |
| C=CCOC(=O)Cn1cnc2c(N)ncnc21 | > 100 µM (inactive) | – | > 100 µM (inactive) | > 100 µM (inactive) | > 100 µM (inactive) | > 100 µM (inactive) | > 100 µM (inactive) | > 100 µM (inactive) | > 100 µM (inactive) | > 100 µM (inactive) | > 100 µM (inactive) | > 100 µM (inactive) | > 100 µM (inactive) | > 100 µM (inactive) | > 100 µM (inactive) | > 100 µM (inactive) | > 100 | > 100 µM (inactive) | > 100 µM (inactive) | > 100 µM (inactive) |
| C=CCC1=CC2(OC)C(=O)C(OC)(OC)C1C1C(OC)(OC)C(=O)C(OC)=CC12CC=C (stereo not drawn) | > 100 µM (inactive) | > 100 µM (inactive) | > 100 µM (inactive) | > 100 µM (inactive) | > 100 µM (inactive) | > 100 µM (inactive) | > 100 µM (inactive) | > 100 µM (inactive) | > 100 µM (inactive) | > 100 µM (inactive) | > 100 µM (inactive) | 67.8 µM (inactive) | > 100 µM (inactive) | > 100 µM (inactive) | > 100 µM (inactive) | > 100 µM (inactive) | > 100 | > 100 µM (inactive) | > 100 µM (inactive) | – |
| COC(=O)[C@H](NC(=O)OC(C)(C)C)[C@H]1COC(C)(C)O1 | > 100 µM (inactive) | – | > 100 µM (inactive) | > 100 µM (inactive) | > 100 µM (inactive) | > 100 µM (inactive) | > 100 µM (inactive) | > 100 µM (inactive) | > 100 µM (inactive) | > 100 µM (inactive) | > 100 µM (inactive) | > 100 µM (inactive) | – | > 100 µM (inactive) | > 100 µM (inactive) | – | > 100 | > 100 µM (inactive) | > 100 µM (inactive) | > 100 µM (inactive) |
| CC/C(Cl)=N\OC(=O)Nc1ccc(OC)cc1 | 5.19 µM (inactive) | 2.43 µM (inactive) | 6.55 µM (inactive) | 14.3 µM (inactive) | 2.03 µM (inactive) | 1.92 µM (inactive) | 1.75 µM (inactive) | 1.65 µM (inactive) | 8.57 µM (inactive) | 15.1 µM (inactive) | 5.43 µM (inactive) | 17.5 µM (inactive) | 6.27 µM (inactive) | 6.05 µM (inactive) | 24 µM (inactive) | 20.2 µM (inactive) | 1.6 | 15 µM (inactive) | 7.06 µM (inactive) | – |
| Clc1c(Cl)c(Cl)c2c(nnn2C2CCCO2)c1Cl (stereo not drawn) | 39.6 µM (inactive) | – | 40.7 µM (inactive) | 29.8 µM (inactive) | – | – | 26.4 µM (inactive) | 31.9 µM (inactive) | 44.4 µM (inactive) | – | 65.3 µM (inactive) | 75.9 µM (inactive) | 12.9 µM (inactive) | 33.6 µM (inactive) | – | 13.9 µM (inactive) | 28.4 | 29.3 µM (inactive) | 43.5 µM (inactive) | 32.9 µM (inactive) |
| CCOc1ccc(Nc2nc3c(s2)C(=O)c2ccccc2C3=O)cc1 | 12.2 µM (inactive) | 12.3 µM (inactive) | 3.76 µM (inactive) | 3.63 µM (inactive) | 3.76 µM (inactive) | 14.5 µM (inactive) | 7.82 µM (inactive) | 8.41 µM (inactive) | 2.24 µM (inactive) | 13.7 µM (inactive) | 20.8 µM (inactive) | 19.7 µM (inactive) | 11.1 µM (inactive) | – | 15.7 µM (inactive) | 15 µM (inactive) | 2.55 | – | 2.33 µM (inactive) | – |
| CN(C)c1ccc(/C=C2\C[C@H]3[C@@H]4CC=C5C[C@@H](O)CC[C@]5(C)[C@H]4CC[C@]3(C)C2=O)cc1 | 16.6 µM (inactive) | – | 20.9 µM (inactive) | 13 µM (inactive) | 13.2 µM (inactive) | 16.2 µM (inactive) | – | – | 17.4 µM (inactive) | 38.5 µM (inactive) | 20.3 µM (inactive) | 25.8 µM (inactive) | 23.2 µM (inactive) | 16.3 µM (inactive) | 17.1 µM (inactive) | 15.8 µM (inactive) | 34.5 | 4.88 µM (inactive) | 18 µM (inactive) | 29.1 µM (inactive) |
